This is an account of results in patent US10617680B2 (CELGENE QUANTICEL RESEARCH, INC., priority 2017, dated 2020).

SMILES strings stand for the structures. pIC50: −log10 of the molar value. Where two headings read alike, the source gives them in different places. Some results are limits rather than exact numbers.

The assay concerns the target CBP (Homo sapiens (Human), UniProt Q92793). Nature of the assay: In vitro CBP inhibition (AlphaScreen, biotinylated H4-tetraacetyl peptide). It counts as binding. The procedure, abridged: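 His-tagged CBP expressed in E. coli (50 nM final) incubated with biotinylated H4K5/8/12/16(Ac) peptide (20 nM final) in 50 mM HEPES pH 7.3, 10 mM NaCl, 0.25 mM TCEP, 0.1% BSA, 0.005% Brij-35, 0.4% DMSO, 20 min at room temp.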
Background: Alpha assays give light when donor and acceptor beads are brought close together.

Where [1] appears, read: AlphaScreen, Table 29, read-out: CBP IC50.

The pIC50 is the negative decadic logarithm of the IC50, by convention in mol/L.

CBP, sequence (Q92793 1081-1197): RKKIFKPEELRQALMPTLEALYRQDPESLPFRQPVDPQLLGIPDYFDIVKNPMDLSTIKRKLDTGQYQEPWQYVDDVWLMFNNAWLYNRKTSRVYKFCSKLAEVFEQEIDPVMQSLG

In the case of `Cn1cc(-c2cnn(Cc3ccccc3)c2)c(-n2ccc(C(N)=O)c2)cc1=O` [Example 85, 1-(5-(1-benzyl-1H-pyrazol-4-yl)-1-methyl-2-oxo-1,2-dihydropyridin-4-yl)-1H-pyrrole-3-carboxamide], under setting [1], the pIC50 is > 6.30.
Same read-out and setting: the value for `CC(C)Cn1cc(-c2cn(C)c(=O)cc2-c2ccccc2)cn1` [Example 137, 5-(1-isobutyl-1H-pyrazol-4-yl)-1-methyl-4-phenylpyridin-2(1H)-one] was > 6.30; that for `Cn1cc(-c2cnn(Cc3ccccn3)c2)ccc1=O` [Example 5, 1-methyl-5-(1-(pyridin-2-ylmethyl)-1H-pyrazol-4-yl)pyridin-2(1H)-one] was 5.30 to 6.30; that for `CCc1ccc(-c2cc(=O)n(C)cc2-c2cnn(-c3cccc(F)c3C#N)c2)cn1` [Example 372, 2-(4-(6-ethyl-1′-methyl-6-oxo-1′,6′-dihydro-[3,4′-bipyridin]-3′-yl)-1H-pyrazol-1-yl)-6-fluorobenzonitrile] was > 6.30.
Still for that read-out and setting: the figure for `COc1ccc(-c2cc(=O)n(C)cc2-c2cnn(-c3ccccc3-c3nnn[nH]3)c2)cc1` [Example 298, 4-(4-Methoxy-phenyl)-1-methyl-5-{1-[2-(1H-tetrazol-5-yl)-phenyl]-1H-pyrazol-4-yl}-1H-pyridin-2-one] is > 6.30; for `COc1ccc(C#N)c(-n2cc(-c3cn(C)c(=O)cc3-c3ccnc(OC)c3)cn2)c1` [Example 266, 4-Methoxy-2-[4-(2′-methoxy-1-methyl-6-oxo-1,6-dihydro-[4,4′]bipyridinyl-3-yl)-pyrazol-1-yl]-benzonitrile] it is > 6.30.
Take `Cn1cc(-c2cnn(Cc3ccccc3)c2)c(N2CCOCC2)cc1=O` [Example 67, 5-(1-benzyl-1H-pyrazol-4-yl)-1-methyl-4-morpholino-pyridin-2(1H)-one]: the pIC50 under setting [1] is > 6.30.
Still for that read-out and setting: the value for `CC(c1cccnc1)n1cc(-c2ccc(=O)n(C)c2)cn1` (centres unmarked) [Example 24, 1-methyl-5-(1-(1-(pyridin-3-yl)ethyl)-1H-pyrazol-4-yl)pyridin-2(1H)-one] was 5.30 to 6.30; that for `Cn1cc(-c2cnn(-c3ccccc3C#N)c2)c(-c2cccc(Cl)c2)cc1=O` [Example 216, 2-{4-[4-(3-Chloro-phenyl)-1-methyl-6-oxo-1,6-dihydro-pyridin-3-yl]-pyrazol-1-yl}-benzonitrile] was > 6.30.
On the same count and under the same terms, the figure for `Cn1cc(-c2cc(=O)n(C)cc2-c2cnn(-c3ccccc3C(=O)O)c2)cn1` [Example 208, 2-{4-[1-Methyl-4-(1-methyl-1H-pyrazol-4-yl)-6-oxo-1,6-dihydro-pyridin-3-yl]-pyrazol-1-yl}-benzoic acid] is > 6.30.
The same measure, in the same setting: the value for `CCOc1cc(=O)n(C)cc1-c1cnn(-c2ccccc2S(C)(=O)=O)c1` [Example 180, 4-Ethoxy-5-[1-(2-methanesulfonyl-phenyl)-1H-pyrazol-4-yl]-1-methyl-1H-pyridin-2-one] was > 6.30.
`Cn1ccc(-c2cc(=O)n(C)cc2-c2cnn(-c3ccccc3F)c2)cc1=O` [Example 318, 5-(1-(2-fluorophenyl)-1H-pyrazol-4-yl)-1,1′-dimethyl-[4,4′-bipyridine]-2,2′(1H,1′H)-dione]: the pIC50 under setting [1] was > 6.30.
On the same count and under the same terms, the value for `Cn1cc(-c2cnn(Cc3ccccc3)c2)c(OCC(F)(F)F)cc1=O` [Example 91, 5-(1-benzyl-1H-pyrazol-4-yl)-1-methyl-4-(2,2,2-trifluoro-ethoxy)pyridin-2(1H)-one] was > 6.30.
The molecule `Cn1cc(-c2cnn(Cc3ccccc3)c2)c(-c2ccccc2Cl)cc1=O` [Example 123, 5-(1-benzyl-1H-pyrazol-4-yl)-4-(2-chlorophenyl)-1-methyl-pyridin-2(1H)-one] had a pIC50 of 5.30 to 6.30.
For `Cn1cc(-c2cnn(Cc3ccccc3)c2)c(-c2ccccn2)cc1=O` [Example 131, 5′-(1-benzyl-1H-pyrazol-4-yl)-1′-methyl-[2,4′-bipyridin]-2′(1′H)-one], the pIC50 under setting [1] was 5.30 to 6.30.
On the same count and under the same terms, the value for `Cn1cc(-c2cnn(-c3cccc(Cl)c3C#N)c2)c(-c2cnc(NC3CCCC3)nc2)cc1=O` [Example 329, 2-chloro-6-(4-(4-(2-(cyclopentylamino)pyrimidin-5-yl)-1-methyl-6-oxo-1,6-dihydropyridin-3-yl)-1H-pyrazol-1-yl)benzonitrile] was > 6.30; that for `Cn1cc(-c2cc(=O)n(C)cc2-c2cnn(CC3CC3(F)F)c2)cn1` (centres unmarked) [Example 192, 5-[1-(2,2-Difluoro-cyclopropylmethyl)-1H-pyrazol-4-yl]-1-methyl-4-(1-methyl-1H-pyrazol-4-yl)-1H-pyridin-2-one] was > 6.30; that for `Cn1cc(-c2cnn(Cc3ccccc3)c2)c2ccccc2c1=O` [Example 8, 4-(1-benzyl-1H-pyrazol-4-yl)-2-methyliso-quinolin-1(2H)-one] was > 6.30.
Still for that read-out and setting: the figure for `CCOc1cc(=O)n(C)cc1-c1cnn(Cc2cccc(C(=O)OC)c2)c1` [Example 71, methyl 3-((4-(4-ethoxy-1-methyl-6-oxo-1,6-dihydropyridin-3-yl)-1H-pyrazol-1-yl)methyl)benzoate] is > 6.30; for `Cc1cccc(C)c1-c1cc(=O)n(C)cc1-c1cnn(Cc2ccccc2)c1` [Example 189, 5-(1-Benzyl-1H-pyrazol-4-yl)-4-(2,6-dimethyl-phenyl)-1-methyl-1H-pyridin-2-one] it is < 5.30; for `Cn1cc(-c2cnn(Cc3ccccc3)c2)c(OCCC(=O)O)cc1=O` [Example 166, 3-[5-(1-Benzyl-1H-pyrazol-4-yl)-1-methyl-2-oxo-1,2-dihydro-pyridin-4-yloxy]-propionic acid] it is > 6.30.
Turning to `Cn1cc(-c2cnn(Cc3ccccc3)c2)c(-c2ccc(=O)[nH]c2)cc1=O` [Example 194, 5′-(1-Benzyl-1H-pyrazol-4-yl)-1′-methyl-1H,1′H-[3,4′]bipyridinyl-6,2′-dione], the pIC50 under setting [1] is > 6.30.
Still for that read-out and setting: the value for `COc1ccc(C#N)c(-n2cc(-c3cn(C)c(=O)cc3-c3ccc(OC)nc3)cn2)c1` [Example 264, 4-Methoxy-2-[4-(6-methoxy-1′-methyl-6′-oxo-1′,6′-dihydro-[3,4′]bipyridinyl-3′-yl)-pyrazol-1-yl]-benzonitrile] was > 6.30; that for `Cn1cc(-c2cnn(Cc3ccccc3)c2)c(NCCC(=O)O)cc1=O` [Example 201, 3-((5-(1-benzyl-1H-pyrazol-4-yl)-1-methyl-2-oxo-1,2-dihydropyridin-4-yl)amino)propanoic Acid] was > 6.30; that for `Cc1cc(-c2cnn(C(C)c3ccccc3)c2C)cn(C)c1=O` (centres unmarked) [Example 34, 1,3-dimethyl-5-(5-methyl-1-(1-phenylethyl)-1H-pyrazol-4-yl) pyridin-2(1H)-one] was > 6.30.
With `CCn1cc(-c2cn(C)c(=O)cc2-c2ccccc2)cn1` [Example 132, 5-(1-ethyl-1H-pyrazol-4-yl)-1-methyl-4-phenylpyridin-2(1H)-one], the pIC50 under setting [1] was > 6.30.
On to `CC(c1ccccc1)n1cc(-c2cc(Cl)c(=O)n(C)c2)cn1` (centres unmarked) [Example 31, 3-chloro-1-methyl-5-(1-(1-phenylethyl)-1H-pyrazol-4-yl) pyridin-2(1H)-one], for which the pIC50 under setting [1] is > 6.30.
On the same count and under the same terms, the value for `Cn1cc(-c2cnn(Cc3ccccc3)c2)c(-n2ccc(C#N)c2)cc1=O` [Example 80, 1-(5-(1-benzyl-1H-pyrazol-4-yl)-1-methyl-2-oxo-1,2-dihydropyridin-4-yl)-1H-pyrrole-3-carbonitrile] was > 6.30.
The same measure, in the same setting: the value for `Cc1ccc(-c2cc(=O)n(C)cc2-c2cnn(-c3ccccc3C#N)c2)cn1` [Example 377, 2-(4-(1′,6-dimethyl-6′-oxo-1′,6′-dihydro-[3,4′-bipyridin]-3′-yl)-1H-pyrazol-1-yl)benzonitrile] was > 6.30; that for `Cn1ccc(-c2cc(=O)n(C)cc2-c2cnn(Cc3ccccc3)c2)n1` [Example 109, 5-(1-benzyl-1H-pyrazol-4-yl)-1-methyl-4-(1-methyl-1H-pyrazol-3-yl)pyridin-2(1H)-one] was 5.30 to 6.30.
On the same count and under the same terms, the value for `COc1ccc(-c2cc(=O)n(C)cc2-c2cnn(-c3ccccc3F)c2)cn1` [Example 319] was > 6.30.
With `CNc1ncc(-c2cc(=O)n(C)cc2-c2cnn(-c3ccccc3C(=O)NC#N)c2)cn1` [Example 295, N-cyano-2-(4-(1-methyl-4-(2-(methylamino)pyrimidin-5-yl)-6-oxo-1,6-dihydropyridin-3-yl)-1H-pyrazol-1-yl)benzamide], the pIC50 under setting [1] was > 6.30.
On the same count and under the same terms, the value for `CNc1ccc(-c2cc(=O)n(C)cc2-c2cnn(-c3cccc(Cl)c3C#N)c2)cn1` [Example 341, 2-chloro-6-(4-(1′-methyl-6-(methylamino)-6′-oxo-1′,6′-dihydro-[3,4′-bipyridin]-3′-yl)-1H-pyrazol-1-yl)benzonitrile] was > 6.30; that for `COc1ccccc1C(C)n1cc(-c2ccc(=O)n(C)c2)cn1` (centres unmarked) [Example 27, 5-(1-(1-(2-methoxy-phenyl)ethyl)-1H-pyrazol-4-yl)-1-methyl-pyridin-2(1H) one] was > 6.30.
Still for that read-out and setting: the value for `COc1ncc(-c2cc(=O)n(C)cc2-c2cnn(-c3ccccc3Cl)c2)cn1` [Example 315, 5-(1-(2-chlorophenyl)-1H-pyrazol-4-yl)-4-(2-methoxypyrimidin-5-yl)-1-methylpyridin-2(1H)-one] was > 6.30; that for `CNc1ncc(-c2cc(=O)n(C)cc2-c2cnn(-c3ccccc3C#N)c2)cn1` [Example 245, 2-(4-(1-methyl-4-(2-(methylamino)pyrimidin-5-yl)-6-oxo-1,6-dihydropyridin-3-yl)-1H-pyrazol-1-yl)benzonitrile] was > 6.30.
On the same count and under the same terms, the value for `Cn1cc(-c2cn(C)c(=O)cc2C2CCCC2)cn1` [Example 142, 4-cyclopentyl-1-methyl-5-(1-methyl-1H-pyrazol-4-yl) pyridin-2(1H)-one] was 5.30 to 6.30; that for `CC(c1ccc(C#N)cc1)n1cc(-c2ccc(=O)n(C)c2)cn1` (centres unmarked) [Example 25, 4-(1-(4-(1-methyl-6-oxo-1,6-dihydropyridin-3-yl)-1H-pyrazol-1-yl)ethyl)benzonitrile] was 5.30 to 6.30.
